One assay deals with barnyard grass. The assay can be described thus: Test Example 3: herbicidal effect by foliage application, Wagner pot (Table 18, symbol H). Type of assay: in vivo, barnyard grass (Echinochloa crus-galli). Particulars: amount of applied herbicide 320 g/ha. The essentials:
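Plants were sown in alluvial soil held under 0.1–0.5 cm standing water and grown 14 days in a greenhouse at 25–30 °C. An emulsifiable formulation, water-diluted to the set dose, was then sprayed onto the foliage, and effects were scored three weeks later using previously defined criteria.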
Regarding `CCCOc1ccc(-c2oc3ccccc3c2-c2c(O)c(C)nn(C)c2=O)cc1` [8-003], the “Herbicidal effect on H (barnyard grass), foliage application” value is 5 (Herbicidal rate of 90% or more (almost completely withered)).

On to `Cc1nn(C)c(=O)c(-c2c(-c3ccc(OCC(C)C)cc3)oc3ccc(F)cc23)c1O` [9-027], for which the “Herbicidal effect on H (barnyard grass), foliage application” value was 5 (Herbicidal rate of 90% or more (almost completely withered)).

Another assay concerns late watergrass. The assay can be described thus: Test Example 2: herbicidal activity, application during weed generation under submerged conditions (Table 17, symbol A). In kind it is in vivo, late watergrass (Echinochloa oryzicola). As to conditions: AAH 320 g/ha; application during weed generation, submerged conditions. The essentials:
(§1)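 Alluvial soil in Wagner pots was flooded to 4 cm depth and sown with the three weeds together; pots were kept in a greenhouse at 25° C. to 30° C. At the one to two leaf stage, an emulsion formulation diluted in water to a set rate went onto the water surface; scored three weeks later.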
Regarding `CCCOc1ccc(-c2oc3ccccc3c2-c2c(O)c(C)nn(C)c2=O)cc1` [8-003], the “herbicidal effect rating, A: late watergrass” value is 4 (Herbicidal rate of 70% or more and less than 90%).

`Cc1nn(C)c(=O)c(-c2c(-c3ccc(OCC(C)C)cc3)oc3ccc(F)cc23)c1O` [9-027]: the “herbicidal effect rating, A: late watergrass” value is 4 (Herbicidal rate of 70% or more and less than 90%).

In a further assay the test system is blackgrass. The assay can be described thus: Test Example 4: herbicidal effect by soil treatment (Table 19, symbol J). Particulars: amount of applied herbicide 320 g/ha. Type of assay: in vivo, blackgrass (Alopecurus myosuroides). The essentials:
(§2)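 Step 1: sow seeds in sterilized diluvial soil, cover ~1.5 cm. Step 2: spray diluted emulsion onto soil surface at predetermined rate. Step 3: greenhouse, 25–30° C, three weeks. Step 4: grade effect on each plant by earlier criteria.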
Turning to `CCCOc1ccc(-c2oc3ccccc3c2-c2c(O)c(C)nn(C)c2=O)cc1` [8-003], the “J: blackgrass, herbicidal effect grade” value was 1 (Herbicidal rate of 5% or more and less than 20%).

With `Cc1nn(C)c(=O)c(-c2c(-c3ccc(OCC(C)C)cc3)oc3ccc(F)cc23)c1O` [9-027], the “J: blackgrass, herbicidal effect grade” value was 4 (Herbicidal rate of 70% or more and less than 90%).

In another assay the test system is lambsquarters. Description: Test Example 5: herbicidal effect by foliage application, plastic box (Table 20, symbol O). In kind it is in vivo, lambsquarters (Chenopodium album). Particulars: foliage application, 320 g/ha, three weeks after application. The essentials: (§3)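 Foliar spray test: emulsion formulation diluted in water to a set application rate, sprayed onto 14-day-old plants raised in diluvial soil at 25° C to 30° C under glass. Both herbicidal effect and crop effect rated visually three weeks later.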
As to `CCCOc1ccc(-c2oc3ccccc3c2-c2c(O)c(C)nn(C)c2=O)cc1` [8-003], the “herbicidal effect on lambsquarters (O)” value is 3 (Herbicidal rate of 40% or more and less than 70%).

As to `Cc1nn(C)c(=O)c(-c2c(-c3ccc(OCC(C)C)cc3)oc3ccc(F)cc23)c1O` [9-027], the “herbicidal effect on lambsquarters (O)” value is recorded as 5 (Herbicidal rate of 90% or more (almost completely withered)).

For another assay, the system named is chickweed. The assay can be described thus: Test Example 4: herbicidal effect by soil treatment (Table 19, symbol P). Type of assay: in vivo, common chickweed (Stellaria media). Particulars: amount of applied herbicide 320 g/ha. The essentials: as §2
For `CCCOc1ccc(-c2oc3ccccc3c2-c2c(O)c(C)nn(C)c2=O)cc1` [8-003], the “P: chickweed, herbicidal effect grade” value was 1 (Herbicidal rate of 5% or more and less than 20%).

Turning to `Cc1nn(C)c(=O)c(-c2c(-c3ccc(OCC(C)C)cc3)oc3ccc(F)cc23)c1O` [9-027], the “P: chickweed, herbicidal effect grade” value is 1 (Herbicidal rate of 5% or more and less than 20%).

The subject of a further assay is southern crabgrass. The assay can be described thus: Test Example 5: herbicidal effect by foliage application, plastic box (Table 20, symbol F). Particulars: foliage application, 320 g/ha, three weeks after application. In kind it is in vivo, southern crabgrass (Digitaria ciliaris). The essentials: as §3
For `CCCOc1ccc(-c2oc3ccccc3c2-c2c(O)c(C)nn(C)c2=O)cc1` [8-003], the “herbicidal effect on southern crabgrass (F)” value was 2 (Herbicidal rate of 20% or more and less than 40%).

As for `Cc1nn(C)c(=O)c(-c2c(-c3ccc(OCC(C)C)cc3)oc3ccc(F)cc23)c1O` [9-027], the “herbicidal effect on southern crabgrass (F)” value is on record as 5 (Herbicidal rate of 90% or more (almost completely withered)).

The subject of the next assay is redroot pigweed. Description: Test Example 4: herbicidal effect by soil treatment (Table 19, symbol N). As to conditions: amount of applied herbicide 320 g/ha. In kind it is in vivo, redroot pigweed (Amaranthus retroflexus). The procedure, abridged: as §2
As to `CCCOc1ccc(-c2oc3ccccc3c2-c2c(O)c(C)nn(C)c2=O)cc1` [8-003], the “N: redroot pigweed, herbicidal effect grade” value is reported as 5 (Herbicidal rate of 90% or more (almost completely withered)).

In the case of `Cc1nn(C)c(=O)c(-c2c(-c3ccc(OCC(C)C)cc3)oc3ccc(F)cc23)c1O` [9-027], the “N: redroot pigweed, herbicidal effect grade” value is given as 5 (Herbicidal rate of 90% or more (almost completely withered)).

The subject of a further assay is oval-leafed pondweed. Description: Test Example 1: herbicidal activity, application before weed generation under submerged conditions (Table 16, symbol C). Type of assay: in vivo, oval-leafed pondweed (Monochoria vaginalis). Particulars: amount of applied herbicide 320 g/ha. The procedure, abridged:
(§4)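 Alluvial soil was flooded to 4 cm depth, weed seeds were sown mixed and 2.5-leaf rice seedlings were transplanted. On sowing day, the compound's emulsion, diluted in water to a set dose, was applied to the water surface. Plants grew at 25–30 °C and were scored 0–5 after three weeks.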
Regarding `CCCOc1ccc(-c2oc3ccccc3c2-c2c(O)c(C)nn(C)c2=O)cc1` [8-003], the “Herbicidal effect, C: oval-leafed pondweed” value is listed as 5 (Herbicidal rate of 90% or more (almost completely withered)).

For the molecule `Cc1nn(C)c(=O)c(-c2c(-c3ccc(OCC(C)C)cc3)oc3ccc(F)cc23)c1O` [9-027], the “Herbicidal effect, C: oval-leafed pondweed” value is 5 (Herbicidal rate of 90% or more (almost completely withered)).

A further assay concerns persian speedwell. Description: Test Example 5: herbicidal effect by foliage application, plastic box (Table 20, symbol R). In kind it is in vivo, Persian speedwell (Veronica persica). As to conditions: foliage application, 320 g/ha, three weeks after application. The essentials: as §3
With `CCCOc1ccc(-c2oc3ccccc3c2-c2c(O)c(C)nn(C)c2=O)cc1` [8-003], the “herbicidal effect on persian speedwell (R)” value is 5 (Herbicidal rate of 90% or more (almost completely withered)).

As for `Cc1nn(C)c(=O)c(-c2c(-c3ccc(OCC(C)C)cc3)oc3ccc(F)cc23)c1O` [9-027], the “herbicidal effect on persian speedwell (R)” value is listed as 5 (Herbicidal rate of 90% or more (almost completely withered)).

For another assay, the system named is wild oat. The assay can be described thus: Test Example 5: herbicidal effect by foliage application, plastic box (Table 20, symbol I). Type of assay: in vivo, wild oat (Avena fatua). Particulars: foliage application, 320 g/ha, three weeks after application. The essentials: as §3
Regarding `CCCOc1ccc(-c2oc3ccccc3c2-c2c(O)c(C)nn(C)c2=O)cc1` [8-003], the “herbicidal effect on wild oat (I)” value is 1 (Herbicidal rate of 5% or more and less than 20%).

For the molecule `Cc1nn(C)c(=O)c(-c2c(-c3ccc(OCC(C)C)cc3)oc3ccc(F)cc23)c1O` [9-027], the “herbicidal effect on wild oat (I)” value was 4 (Herbicidal rate of 70% or more and less than 90%).

The next assay relates to barnyard grass. Description: Test Example 4: herbicidal effect by soil treatment (Table 19, symbol H). Particulars: amount of applied herbicide 320 g/ha. Type of assay: in vivo, barnyard grass (Echinochloa crus-galli). The essentials:
as §2
As for `CCCOc1ccc(-c2oc3ccccc3c2-c2c(O)c(C)nn(C)c2=O)cc1` [8-003], the “H: barnyard grass, herbicidal effect grade” value is listed as 5 (Herbicidal rate of 90% or more (almost completely withered)).

As for `Cc1nn(C)c(=O)c(-c2c(-c3ccc(OCC(C)C)cc3)oc3ccc(F)cc23)c1O` [9-027], the “H: barnyard grass, herbicidal effect grade” value is 4 (Herbicidal rate of 70% or more and less than 90%).

Another assay deals with southern crabgrass. Description: Test Example 4: herbicidal effect by soil treatment (Table 19, symbol F). In kind it is in vivo, southern crabgrass (Digitaria ciliaris). Particulars: amount of applied herbicide 320 g/ha. The essentials:
as §2
Consider `CCCOc1ccc(-c2oc3ccccc3c2-c2c(O)c(C)nn(C)c2=O)cc1` [8-003], for which the “F: southern crabgrass, herbicidal effect grade” value is 3 (Herbicidal rate of 40% or more and less than 70%).

As to `Cc1nn(C)c(=O)c(-c2c(-c3ccc(OCC(C)C)cc3)oc3ccc(F)cc23)c1O` [9-027], the “F: southern crabgrass, herbicidal effect grade” value is 5 (Herbicidal rate of 90% or more (almost completely withered)).

A further assay deals with Japanese bulrush. The assay can be described thus: Test Example 1: herbicidal activity, application before weed generation under submerged conditions (Table 16, symbol B). As to conditions: amount of applied herbicide 320 g/ha. Type of assay: in vivo, Japanese bulrush (Schoenoplectus juncoides). The essentials:
as §4
Consider `CCCOc1ccc(-c2oc3ccccc3c2-c2c(O)c(C)nn(C)c2=O)cc1` [8-003], for which the “Herbicidal effect, B: Japanese bulrush” value is reported as 5 (Herbicidal rate of 90% or more (almost completely withered)).

Turning to `Cc1nn(C)c(=O)c(-c2c(-c3ccc(OCC(C)C)cc3)oc3ccc(F)cc23)c1O` [9-027], the “Herbicidal effect, B: Japanese bulrush” value is reported as 5 (Herbicidal rate of 90% or more (almost completely withered)).

A further assay concerns Japanese bulrush. Description: Test Example 2: herbicidal activity, application during weed generation under submerged conditions (Table 17, symbol B). In kind it is in vivo, Japanese bulrush (Schoenoplectus juncoides). As to conditions: AAH 320 g/ha; application during weed generation, submerged conditions. The essentials: as §1
Take `CCCOc1ccc(-c2oc3ccccc3c2-c2c(O)c(C)nn(C)c2=O)cc1` [8-003]: the “herbicidal effect rating, B: Japanese bulrush” value is 3 (Herbicidal rate of 40% or more and less than 70%).

For `Cc1nn(C)c(=O)c(-c2c(-c3ccc(OCC(C)C)cc3)oc3ccc(F)cc23)c1O` [9-027], the “herbicidal effect rating, B: Japanese bulrush” value was 3 (Herbicidal rate of 40% or more and less than 70%).

A further assay concerns blackgrass. Description: Test Example 5: herbicidal effect by foliage application, plastic box (Table 20, symbol J). Particulars: foliage application, 320 g/ha, three weeks after application. Type of assay: in vivo, blackgrass (Alopecurus myosuroides). The procedure, abridged: as §3
For the molecule `CCCOc1ccc(-c2oc3ccccc3c2-c2c(O)c(C)nn(C)c2=O)cc1` [8-003], the “herbicidal effect on blackgrass (J)” value was 4 (Herbicidal rate of 70% or more and less than 90%).

Turning to `Cc1nn(C)c(=O)c(-c2c(-c3ccc(OCC(C)C)cc3)oc3ccc(F)cc23)c1O` [9-027], the “herbicidal effect on blackgrass (J)” value is on record as 5 (Herbicidal rate of 90% or more (almost completely withered)).

The next assay deals with green foxtail. The assay can be described thus: Test Example 5: herbicidal effect by foliage application, plastic box (Table 20, symbol G). Type of assay: in vivo, green foxtail (Setaria viridis). As to conditions: foliage application, 320 g/ha, three weeks after application. The essentials:
as §3
Turning to `CCCOc1ccc(-c2oc3ccccc3c2-c2c(O)c(C)nn(C)c2=O)cc1` [8-003], the “herbicidal effect on green foxtail (G)” value is 5 (Herbicidal rate of 90% or more (almost completely withered)).

Regarding `Cc1nn(C)c(=O)c(-c2c(-c3ccc(OCC(C)C)cc3)oc3ccc(F)cc23)c1O` [9-027], the “herbicidal effect on green foxtail (G)” value is 5 (Herbicidal rate of 90% or more (almost completely withered)).

(Values after US20230085307A1, “PYRIDAZINONE COMPOUND AND HERBICIDE” (NISSAN CHEMICAL CORPORATION, priority 2019, published 2023).)
